Results taken from ChEMBL document CHEMBL5303573, “Mapping human microbiome drug metabolism by gut bacteria and their genes” (Nature, 2019).

Assay: The drug is tested on Bacteroides xylanisolvens strain: DSM18836 for biotransformation. The drug concentrations were measured before and after a 12-h incubation by liquid-chromatography-coupled mass spectrometry (LC–MS)
Details: 2 µM

| Structure (SMILES) | Bacterial Biotransformation |
| --- | --- |
| O=C(O)COCCN1CCN(C(c2ccccc2)c2ccc(Cl)cc2)CC1 (stereo unspecified) [CETIRIZINE] | Compound metabolized |
| CC[C@H](C)C(=O)O[C@H]1C[C@@H](C)C=C2C=C[C@H](C)[C@H](CC[C@@H]3C[C@@H](O)CC(=O)O3)[C@H]21 [LOVASTATIN] | Compound NOT metabolized |

Assay: The drug is tested on Collinsella aerofaciens strain: ATCC25986 for biotransformation. The drug concentrations were measured before and after a 12-h incubation by liquid-chromatography-coupled mass spectrometry (LC–MS)
Details: 2 µM

| Structure (SMILES) | Bacterial Biotransformation |
| --- | --- |
| O=C(O)COCCN1CCN(C(c2ccccc2)c2ccc(Cl)cc2)CC1 (stereo unspecified) [CETIRIZINE] | Compound NOT metabolized |
| CC[C@H](C)C(=O)O[C@H]1C[C@@H](C)C=C2C=C[C@H](C)[C@H](CC[C@@H]3C[C@@H](O)CC(=O)O3)[C@H]21 [LOVASTATIN] | Compound NOT metabolized |

Details: bacteroides fragilis, 12 h, 2 µM
Description: The drug is tested on Bacteroides fragilis strain: 3397 (T10) for biotransformation. The drug concentrations were measured before and after a 12-h incubation by liquid-chromatography-coupled mass spectrometry (LC–MS)

| Structure (SMILES) | Bacterial Biotransformation |
| --- | --- |
| O=C(O)COCCN1CCN(C(c2ccccc2)c2ccc(Cl)cc2)CC1 (stereo unspecified) [CETIRIZINE] | Compound metabolized |
| CC[C@H](C)C(=O)O[C@H]1C[C@@H](C)C=C2C=C[C@H](C)[C@H](CC[C@@H]3C[C@@H](O)CC(=O)O3)[C@H]21 [LOVASTATIN] | Compound metabolized |

Assay: The drug is tested on Eubacterium hallii strain: DSM3353 for biotransformation. The drug concentrations were measured before and after a 12-h incubation by liquid-chromatography-coupled mass spectrometry (LC–MS)
Details: anaerobutyricum hallii, 2 µM

| Structure (SMILES) | Bacterial Biotransformation |
| --- | --- |
| O=C(O)COCCN1CCN(C(c2ccccc2)c2ccc(Cl)cc2)CC1 (stereo unspecified) [CETIRIZINE] | Compound NOT metabolized |
| CC[C@H](C)C(=O)O[C@H]1C[C@@H](C)C=C2C=C[C@H](C)[C@H](CC[C@@H]3C[C@@H](O)CC(=O)O3)[C@H]21 [LOVASTATIN] | Compound metabolized |

Assay: The drug is tested on Clostridium sporogenes strain: ATCC15579 for biotransformation. The drug concentrations were measured before and after a 12-h incubation by liquid-chromatography-coupled mass spectrometry (LC–MS)
Details: 2 µM

| Structure (SMILES) | Bacterial Biotransformation |
| --- | --- |
| O=C(O)COCCN1CCN(C(c2ccccc2)c2ccc(Cl)cc2)CC1 (stereo unspecified) [CETIRIZINE] | Compound NOT metabolized |

Details: anaerostipes sp., 12 h, 2 µM
Description: The drug is tested on Anaerostipes sp. strain: fecal isolate for biotransformation. The drug concentrations were measured before and after a 12-h incubation by liquid-chromatography-coupled mass spectrometry (LC–MS)

| Structure (SMILES) | Bacterial Biotransformation |
| --- | --- |
| O=C(O)COCCN1CCN(C(c2ccccc2)c2ccc(Cl)cc2)CC1 (stereo unspecified) [CETIRIZINE] | Compound NOT metabolized |
| CC[C@H](C)C(=O)O[C@H]1C[C@@H](C)C=C2C=C[C@H](C)[C@H](CC[C@@H]3C[C@@H](O)CC(=O)O3)[C@H]21 [LOVASTATIN] | Compound NOT metabolized |

Assay: The drug is tested on Odoribacter splanchnicus strain: fecal isolate for biotransformation. The drug concentrations were measured before and after a 12-h incubation by liquid-chromatography-coupled mass spectrometry (LC–MS)
Details: 2 µM

| Structure (SMILES) | Bacterial Biotransformation |
| --- | --- |
| CC[C@H](C)C(=O)O[C@H]1C[C@@H](C)C=C2C=C[C@H](C)[C@H](CC[C@@H]3C[C@@H](O)CC(=O)O3)[C@H]21 [LOVASTATIN] | Compound metabolized |

Assay: The drug is tested on Ruminococcus lactaris strain: ATCC29176 for biotransformation. The drug concentrations were measured before and after a 12-h incubation by liquid-chromatography-coupled mass spectrometry (LC–MS)
Details: 2 µM

| Structure (SMILES) | Bacterial Biotransformation |
| --- | --- |
| O=C(O)COCCN1CCN(C(c2ccccc2)c2ccc(Cl)cc2)CC1 (stereo unspecified) [CETIRIZINE] | Compound NOT metabolized |
| CC[C@H](C)C(=O)O[C@H]1C[C@@H](C)C=C2C=C[C@H](C)[C@H](CC[C@@H]3C[C@@H](O)CC(=O)O3)[C@H]21 [LOVASTATIN] | Compound NOT metabolized |

Assay: The drug is tested on Coprococcus comes strain: ATCC27758 for biotransformation. The drug concentrations were measured before and after a 12-h incubation by liquid-chromatography-coupled mass spectrometry (LC–MS)
Format: ADME
Design: dose 2 uM, timepoint 0 vs 12 hours
Details: 2 µM

| Structure (SMILES) | Bacterial Biotransformation |
| --- | --- |
| O=C(O)COCCN1CCN(C(c2ccccc2)c2ccc(Cl)cc2)CC1 (stereo unspecified) [CETIRIZINE] | Compound NOT metabolized |
| CC[C@H](C)C(=O)O[C@H]1C[C@@H](C)C=C2C=C[C@H](C)[C@H](CC[C@@H]3C[C@@H](O)CC(=O)O3)[C@H]21 [LOVASTATIN] | Compound NOT metabolized |

Assay: The drug is tested on Bacteroides fragilis strain: ATCC43859 for biotransformation. The drug concentrations were measured before and after a 12-h incubation by liquid-chromatography-coupled mass spectrometry (LC–MS)
Details: 2 µM

| Structure (SMILES) | Bacterial Biotransformation |
| --- | --- |
| O=C(O)COCCN1CCN(C(c2ccccc2)c2ccc(Cl)cc2)CC1 (stereo unspecified) [CETIRIZINE] | Compound metabolized |
| CC[C@H](C)C(=O)O[C@H]1C[C@@H](C)C=C2C=C[C@H](C)[C@H](CC[C@@H]3C[C@@H](O)CC(=O)O3)[C@H]21 [LOVASTATIN] | Compound NOT metabolized |

Details: parabacteroides distasonis, 12 h, 2 µM
Description: The drug is tested on Parabacteroides distasonis strain: ATCC8503 for biotransformation. The drug concentrations were measured before and after a 12-h incubation by liquid-chromatography-coupled mass spectrometry (LC–MS)

| Structure (SMILES) | Bacterial Biotransformation |
| --- | --- |
| O=C(O)COCCN1CCN(C(c2ccccc2)c2ccc(Cl)cc2)CC1 (stereo unspecified) [CETIRIZINE] | Compound metabolized |
| CC[C@H](C)C(=O)O[C@H]1C[C@@H](C)C=C2C=C[C@H](C)[C@H](CC[C@@H]3C[C@@H](O)CC(=O)O3)[C@H]21 [LOVASTATIN] | Compound metabolized |

Assay: The drug is tested on Enterobacter cancerogenus strain: ATCC35316 for biotransformation. The drug concentrations were measured before and after a 12-h incubation by liquid-chromatography-coupled mass spectrometry (LC–MS)
Details: 2 µM

| Structure (SMILES) | Bacterial Biotransformation |
| --- | --- |
| O=C(O)COCCN1CCN(C(c2ccccc2)c2ccc(Cl)cc2)CC1 (stereo unspecified) [CETIRIZINE] | Compound NOT metabolized |
| CC[C@H](C)C(=O)O[C@H]1C[C@@H](C)C=C2C=C[C@H](C)[C@H](CC[C@@H]3C[C@@H](O)CC(=O)O3)[C@H]21 [LOVASTATIN] | Compound metabolized |

Assay: The drug is tested on Bacteroides caccae strain: ATCC43185 for biotransformation. The drug concentrations were measured before and after a 12-h incubation by liquid-chromatography-coupled mass spectrometry (LC–MS)
Details: 2 µM

| Structure (SMILES) | Bacterial Biotransformation |
| --- | --- |
| O=C(O)COCCN1CCN(C(c2ccccc2)c2ccc(Cl)cc2)CC1 (stereo unspecified) [CETIRIZINE] | Compound NOT metabolized |
| CC[C@H](C)C(=O)O[C@H]1C[C@@H](C)C=C2C=C[C@H](C)[C@H](CC[C@@H]3C[C@@H](O)CC(=O)O3)[C@H]21 [LOVASTATIN] | Compound NOT metabolized |

Details: bacteroides intestinalis, 12 h, 2 µM
Description: The drug is tested on Bacteroides intestinalis strain: DSM17393 for biotransformation. The drug concentrations were measured before and after a 12-h incubation by liquid-chromatography-coupled mass spectrometry (LC–MS)

| Structure (SMILES) | Bacterial Biotransformation |
| --- | --- |
| O=C(O)COCCN1CCN(C(c2ccccc2)c2ccc(Cl)cc2)CC1 (stereo unspecified) [CETIRIZINE] | Compound metabolized |
| CC[C@H](C)C(=O)O[C@H]1C[C@@H](C)C=C2C=C[C@H](C)[C@H](CC[C@@H]3C[C@@H](O)CC(=O)O3)[C@H]21 [LOVASTATIN] | Compound metabolized |

Assay: The drug is tested on Bacteroides finegoldii strain: DSM17565 for biotransformation. The drug concentrations were measured before and after a 12-h incubation by liquid-chromatography-coupled mass spectrometry (LC–MS)
Details: 2 µM

| Structure (SMILES) | Bacterial Biotransformation |
| --- | --- |
| O=C(O)COCCN1CCN(C(c2ccccc2)c2ccc(Cl)cc2)CC1 (stereo unspecified) [CETIRIZINE] | Compound metabolized |

Assay: The drug is tested on Clostridium scindens strain: ATCC35704 for biotransformation. The drug concentrations were measured before and after a 12-h incubation by liquid-chromatography-coupled mass spectrometry (LC–MS)
Details: 2 µM

| Structure (SMILES) | Bacterial Biotransformation |
| --- | --- |
| O=C(O)COCCN1CCN(C(c2ccccc2)c2ccc(Cl)cc2)CC1 (stereo unspecified) [CETIRIZINE] | Compound NOT metabolized |
| CC[C@H](C)C(=O)O[C@H]1C[C@@H](C)C=C2C=C[C@H](C)[C@H](CC[C@@H]3C[C@@H](O)CC(=O)O3)[C@H]21 [LOVASTATIN] | Compound metabolized |

Assay: The drug is tested on Providencia rettgeri strain: DSM1131 for biotransformation. The drug concentrations were measured before and after a 12-h incubation by liquid-chromatography-coupled mass spectrometry (LC–MS)
Format: ADME
Design: dose 2 uM, timepoint 0 vs 12 hours
Details: 2 µM

| Structure (SMILES) | Bacterial Biotransformation |
| --- | --- |
| CC[C@H](C)C(=O)O[C@H]1C[C@@H](C)C=C2C=C[C@H](C)[C@H](CC[C@@H]3C[C@@H](O)CC(=O)O3)[C@H]21 [LOVASTATIN] | Compound metabolized |

Assay: The drug is tested on Bacteroides fragilis strain: HMW615 for biotransformation. The drug concentrations were measured before and after a 12-h incubation by liquid-chromatography-coupled mass spectrometry (LC–MS)
Details: 2 µM

| Structure (SMILES) | Bacterial Biotransformation |
| --- | --- |
| O=C(O)COCCN1CCN(C(c2ccccc2)c2ccc(Cl)cc2)CC1 (stereo unspecified) [CETIRIZINE] | Compound metabolized |
| CC[C@H](C)C(=O)O[C@H]1C[C@@H](C)C=C2C=C[C@H](C)[C@H](CC[C@@H]3C[C@@H](O)CC(=O)O3)[C@H]21 [LOVASTATIN] | Compound metabolized |

Details: bacteroides thetaiotaomicron, 12 h, 2 µM
Description: The drug is tested on Bacteroides thetaiotaomicron strain: 3731 for biotransformation. The drug concentrations were measured before and after a 12-h incubation by liquid-chromatography-coupled mass spectrometry (LC–MS)

| Structure (SMILES) | Bacterial Biotransformation |
| --- | --- |
| O=C(O)COCCN1CCN(C(c2ccccc2)c2ccc(Cl)cc2)CC1 (stereo unspecified) [CETIRIZINE] | Compound metabolized |
| CC[C@H](C)C(=O)O[C@H]1C[C@@H](C)C=C2C=C[C@H](C)[C@H](CC[C@@H]3C[C@@H](O)CC(=O)O3)[C@H]21 [LOVASTATIN] | Compound NOT metabolized |

Assay: The drug is tested on Bifidobacterium longum subsp. Infantis strain: CCUG52486 for biotransformation. The drug concentrations were measured before and after a 12-h incubation by liquid-chromatography-coupled mass spectrometry (LC–MS)
Details: 2 µM

| Structure (SMILES) | Bacterial Biotransformation |
| --- | --- |
| O=C(O)COCCN1CCN(C(c2ccccc2)c2ccc(Cl)cc2)CC1 (stereo unspecified) [CETIRIZINE] | Compound NOT metabolized |
| CC[C@H](C)C(=O)O[C@H]1C[C@@H](C)C=C2C=C[C@H](C)[C@H](CC[C@@H]3C[C@@H](O)CC(=O)O3)[C@H]21 [LOVASTATIN] | Compound NOT metabolized |
